Experimental data as given in the NIST ThermoML archive (doi:10.1016/j.jct.2011.10.014).
“And” between values parts separate entries of the source, which are not always exact repeats. Identical values can stand only once.

Assay: molar heat capacity at constant pressure
Conditions: 101.33 kPa, Crystal, Vacuum adiabatic calorimetry

O=C([O-])[O-].[Pb+2] [lead(II) carbonate]
Conditions | molar heat capacity at constant pressure
229.94 K | 77.92 J/K/mol
230 K | 77.94 J/K/mol
233.13 K | 78.35 J/K/mol
236.26 K | 78.83 J/K/mol
239.37 K | 79.24 J/K/mol
240 K | 79.27 J/K/mol
242.47 K | 79.61 J/K/mol
245.56 K | 79.93 J/K/mol
247.36 K | 80.25 J/K/mol
247.44 K | 80.03 J/K/mol
248.53 K | 80.25 J/K/mol
248.62 K | 80.46 J/K/mol
249.63 K | 80.36 J/K/mol
250 K | 80.62 J/K/mol
250.32 K | 80.37 J/K/mol
250.72 K | 80.4 J/K/mol
251.68 K | 80.91 J/K/mol
251.81 K | 80.67 J/K/mol
252.9 K | 80.66 J/K/mol
253.25 K | 80.99 J/K/mol
253.98 K | 80.8 J/K/mol
254.73 K | 81.2 J/K/mol
255.06 K | 81.13 J/K/mol
255.71 K | 81.1 J/K/mol
256.15 K | 81.11 J/K/mol
256.2 K | 81.29 J/K/mol
256.35 K | 81.17 J/K/mol
257 K | 81.19 J/K/mol
257.23 K | 81.2 J/K/mol
257.66 K | 81.19 J/K/mol
257.75 K | 81.55 J/K/mol
258.31 K | 81.42 J/K/mol
258.32 K | 81.33 J/K/mol
258.97 K | 81.78 J/K/mol
259.12 K | 81.62 J/K/mol
259.4 K | 81.47 J/K/mol
259.66 K | 81.57 J/K/mol
260 K | 81.98 J/K/mol
260.33 K | 81.49 J/K/mol
260.47 K | 81.78 J/K/mol
260.76 K | 82.18 J/K/mol
260.93 K | 82.3 J/K/mol
261 K | 81.89 J/K/mol
261.55 K | 81.78 J/K/mol
261.69 K | 82.09 J/K/mol
262.03 K | 82.18 J/K/mol
262.39 K | 82.04 J/K/mol
262.62 K | 82.88 J/K/mol
262.63 K | 81.92 J/K/mol
263.17 K | 81.79 J/K/mol
263.27 K | 82.56 J/K/mol
263.7 K | 82.23 J/K/mol
263.78 K | 82.71 J/K/mol
263.85 K | 82.12 J/K/mol
263.9 K | 82.69 J/K/mol
264.53 K | 82.15 J/K/mol
264.54 K | 82.73 J/K/mol
264.79 K | 82.47 J/K/mol
264.95 K | 82.64 J/K/mol
265.18 K | 82.86 J/K/mol
265.2 K | 82.17 J/K/mol
265.82 K | 82.91 J/K/mol
265.86 K | 82.45 J/K/mol
265.88 K | 82.3 J/K/mol
266.47 K | 83.02 J/K/mol
266.56 K | 82.66 J/K/mol
266.78 K | 83.22 J/K/mol
266.94 K | 82.58 J/K/mol
267.12 K | 83.34 J/K/mol
267.27 K | 82.4 J/K/mol
267.77 K | 83.48 J/K/mol
267.85 K | 83 J/K/mol
267.95 K | 82.62 J/K/mol
268.01 K | 82.76 J/K/mol
268.42 K | 83.69 J/K/mol
268.63 K | 82.71 J/K/mol
269.07 K | 83.96 J/K/mol and 83 J/K/mol
269.31 K | 82.9 J/K/mol
269.73 K | 83.98 J/K/mol
269.75 K | 84.22 J/K/mol
269.99 K | 83.23 J/K/mol
270 K | 83.33 J/K/mol
270.14 K | 83.5 J/K/mol
270.38 K | 84.12 J/K/mol
270.68 K | 83.45 J/K/mol
270.74 K | 83.86 J/K/mol
271.04 K | 84.03 J/K/mol
271.2 K | 83.78 J/K/mol
271.36 K | 84.03 J/K/mol
271.7 K | 84.69 J/K/mol
272.07 K | 84.59 J/K/mol
272.26 K | 84.68 J/K/mol
272.43 K | 85.87 J/K/mol
272.67 K | 88.34 J/K/mol
272.77 K | 85.64 J/K/mol
273.1 K | 94.33 J/K/mol
273.15 K | 83.77 J/K/mol
273.3 K | 90.01 J/K/mol
273.43 K | 87.85 J/K/mol
273.58 K | 87.5 J/K/mol
273.76 K | 86.34 J/K/mol
274.21 K | 85.21 J/K/mol
274.36 K | 85.11 J/K/mol
274.43 K | 85.57 J/K/mol
274.92 K | 84.78 J/K/mol
275.09 K | 85.53 J/K/mol
275.43 K | 85.37 J/K/mol
275.61 K | 85.08 J/K/mol
275.62 K | 85.95 J/K/mol
275.76 K | 86.02 J/K/mol
276.3 K | 85.69 J/K/mol
276.44 K | 86.06 J/K/mol
276.47 K | 85.96 J/K/mol
276.49 K | 86.54 J/K/mol
276.98 K | 85.66 J/K/mol
277.13 K | 85.86 J/K/mol
277.55 K | 87.21 J/K/mol
277.67 K | 85.56 J/K/mol
277.8 K | 86.13 J/K/mol
278.35 K | 85.61 J/K/mol
278.49 K | 85.51 J/K/mol
278.57 K | 85.33 J/K/mol
278.64 K | 85.79 J/K/mol
279.04 K | 84.8 J/K/mol
279.16 K | 84.95 J/K/mol
279.34 K | 85.02 J/K/mol
279.74 K | 85.51 J/K/mol and 84.58 J/K/mol
279.84 K | 84.46 J/K/mol
280 K | 84.69 J/K/mol
280.48 K | 84.25 J/K/mol
280.51 K | 84.4 J/K/mol
280.87 K | 84.45 J/K/mol
281.17 K | 84.41 J/K/mol
281.18 K | 84.61 J/K/mol
281.61 K | 84.92 J/K/mol
281.86 K | 84.62 J/K/mol
281.87 K | 84.51 J/K/mol
282.22 K | 84.71 J/K/mol
282.54 K | 84.79 J/K/mol
283.3 K | 84.95 J/K/mol
283.98 K | 85.16 J/K/mol
284.55 K | 85.29 J/K/mol
284.68 K | 85.43 J/K/mol
285.39 K | 85.19 J/K/mol
286.07 K | 85.27 J/K/mol
286.75 K | 85.41 J/K/mol
287.43 K | 85.38 J/K/mol
287.49 K | 85.63 J/K/mol
288.12 K | 85.33 J/K/mol
288.8 K | 85.51 J/K/mol
289.49 K | 85.71 J/K/mol
290 K | 86.01 J/K/mol
290.41 K | 86 J/K/mol
293.33 K | 86.4 J/K/mol
296.23 K | 86.78 J/K/mol
298.15 K | 87.07 J/K/mol
299.12 K | 87.18 J/K/mol
300 K | 87.3 J/K/mol
302 K | 87.59 J/K/mol
304.88 K | 87.95 J/K/mol
307.76 K | 88.29 J/K/mol
310 K | 88.56 J/K/mol
310.62 K | 88.63 J/K/mol
313.49 K | 89 J/K/mol
316.35 K | 89.34 J/K/mol
320 K | 89.76 J/K/mol
